Measured values as given in patent publication EP0702015B1, “Bicyclic oxazole and thiazole substituted ethers” (Novartis AG, priority 1994, dated 1996).

Columns and labels:
[1] = tested on: rat muscle cell line (L6 myocytes); experiment: L6 myocyte screen (glucose utilization); type: cell-based; details: differentiated L6 myocytes, 20 hours treatment, DMEM with 15 mM glucose, concentration producing 50 % of maximum response versus control, read-out: EC50 in the L6 myocyte test
Method: This is indicated in standard tests, e.g. in vitro by the L6 myocyte screen in a rat muscle cell line:
The L6 myocyte screen determines the direct effects of 1 to 300 µM concentrations of the agents on glucose utilization in the rat muscle cell line. Rat L6 myoblasts (American Type Culture Collection) are maintained in Dulbecco's modified Eagle's medium (DMEM, Gibco) containing 5 mM glucose and 10 % calf serum supplement. The L6 myoblasts are plated in 96-well microtiter plates at a density of 3000 cells/well. Differentiated myocytes are used in experiments on the 11th or 13th day after plating. All test agents are dissolved in 1 % dimethylsulfoxide (DMSO) in serum-free testing media. The DMSO has no effect on glucose utilization. Each experiment includes the following internal controls: water, glucose standard (300 mg/dl), media blank, media control, ciglitazone standard (30 µM) and an insulin dose-response curve (0.03 - 1 µM). All compounds are tested in quadruplicate in each experiment at concentrations of 1, 3, 10, 30,100 and 300 µM. The L6 cells are treated with test compound and DMEM containing 15 mM glucose for 20 hours. Glucose utilization is assessed by measurement of glucose remaining in the media using a glucose oxidase assay (Ciba-Corning #S1004B). The EC50 is the concentration of the test agent estimated to produce 50 % of the maximum response versus control.

male ob/ob mice = experiment: ob/ob hypoglycemia test; type: in vivo; details: oral gavage once a day for three days, blood glucose lowering, calculated on day 3
Method: The antidiabetic activity is indicated in vivo e.g. in the ob/ob hypoglycemia test in male ob/ob mice, given 1 to 200 mg/kg of drug. The mice, approximately 2 to 3 months of age, weighing about 30 g, are kept in a room at a controlled ambient temperature of 22° C and a 12/12 hour light/dark cycle for at least seven days before the screen and then during testing. In the ob/ob screen, Purina rodent chow and water are available ad libitum. For each screen, mice are matched and placed in treatment groups (six mice per group) on the basis of initial blood glucose levels the day prior to screening (day 0). Animals are dosed once a day for three days with either vehicle (carboxymethylcellulose 0.5 %, with Tween-80 0.2 %) or test compound in vehicle. The animals receive 0.1 ml/10 g body weight administered orally by gavage. On day 1, blood glucose levels are sampled from the tip of the tail at 2 and 4 hours post-dose. On day 3, blood glucose levels are sampled at 2, 4 and 8 hours post-dose. Blood glucose levels are measured by the glucose oxidase method (YSI Model 27, Yellow Springs, Ohio). […] A systematic, quantitative procedure for assessing the behavioral and physiological state of the mouse, in Psychopharmacologica 12 (1968) 222-257.
Efficacy for glucose lowering is determined by comparing glucose levels of control animals to those of treated animals. […]

Row | SMILES | EC50 [1] | EC50 in the ob/ob hypoglycemia test (male ob/ob mice)
1 | O=C1CC[C@]2(c3ccc(Cl)c(Cl)c3)O[C@H](COc3ccc(Cl)cc3)CN12 [Example 1, (-)-trans-2S-[(4-Chlorophenoxy)methyl]-7A-(3,4-dichlorophenyl)-2,3,7,7a-tetrahydropyrrolo[2.1-b]oxazol-5(6H)-one] | ~10 µM | –
2 | O=C1CC[C@]2(c3ccc(Cl)c(Cl)c3)O[C@H](COc3ccc(Cl)cc3)CN12 (racemic) [Example 3, (±)-trans-2-[(4-Chlorophenoxy)methyl]-7a-(3,4-dichlorophenyl)-2,3,7,7a-tetrahydropyrrolo[2,1-b]oxazol-5(6H)-one] | ~14 µM | about 62 mg/kg
